# Experimental data from patent US8361998B2, “Compounds and their use as IKACh blockers” (AstraZeneca AB, priority 2010, dated 2013).
# Read-outs that look alike come from different tables or passages of the source.
# Molecular target: T1, human cardiac ion channel proteins hKir3.1/Kir3.4 (Homo sapiens, UniProt P48544+P48549)
# T1 construct: expressed in transfected cells
# T1 sequence (P48549 1-501): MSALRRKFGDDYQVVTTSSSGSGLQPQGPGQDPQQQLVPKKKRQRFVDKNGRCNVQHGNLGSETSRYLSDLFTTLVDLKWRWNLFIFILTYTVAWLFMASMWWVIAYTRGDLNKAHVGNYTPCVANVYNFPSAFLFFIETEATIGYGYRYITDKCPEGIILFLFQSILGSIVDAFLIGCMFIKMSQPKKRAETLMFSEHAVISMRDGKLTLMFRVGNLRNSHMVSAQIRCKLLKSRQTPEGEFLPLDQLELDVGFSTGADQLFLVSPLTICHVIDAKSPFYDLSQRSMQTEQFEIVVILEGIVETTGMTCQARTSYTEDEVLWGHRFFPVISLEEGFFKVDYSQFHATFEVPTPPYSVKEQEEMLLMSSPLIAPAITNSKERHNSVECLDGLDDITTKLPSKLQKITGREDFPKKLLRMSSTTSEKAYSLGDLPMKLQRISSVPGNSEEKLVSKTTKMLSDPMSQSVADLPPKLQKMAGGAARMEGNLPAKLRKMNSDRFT
# T1 sequence (P48544 1-419): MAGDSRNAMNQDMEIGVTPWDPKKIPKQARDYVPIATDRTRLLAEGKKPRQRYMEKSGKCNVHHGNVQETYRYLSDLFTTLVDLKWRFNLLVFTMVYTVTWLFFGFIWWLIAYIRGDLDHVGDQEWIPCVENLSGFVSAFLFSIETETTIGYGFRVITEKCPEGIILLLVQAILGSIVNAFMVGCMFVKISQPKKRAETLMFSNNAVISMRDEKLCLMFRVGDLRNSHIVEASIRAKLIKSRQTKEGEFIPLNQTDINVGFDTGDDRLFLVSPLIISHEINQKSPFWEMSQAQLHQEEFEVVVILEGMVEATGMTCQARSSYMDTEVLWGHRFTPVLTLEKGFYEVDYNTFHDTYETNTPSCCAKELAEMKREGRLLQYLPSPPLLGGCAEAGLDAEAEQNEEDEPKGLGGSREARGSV
# Experiment: Atomic Absorption Screening (AAS) Rb efflux assay of hKir3.1/Kir3.4 block, carbachol/high K+ stimulated, 10-pt or 7-pt CR
# Type: cell-based
# How it was run: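 CHO-K1 cells stably co-expressing human Kir3.1/Kir3.4 were Rb-loaded for 3 h at 37° C, preincubated with compound 5 min at RT, then stimulated 10 min with 10 μM carbachol plus 20 mM KCl (final). Supernatant Rb was measured by atomic absorption. Compounds ran at 0.003–67 μmol/L (10-pt) or 0.037–27 μmol/L (7-pt), threefold dilutions; IC50s are means of >4 or >3 replicates respectively.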
# [1] = 10-pt CR (0.003 to 67 μmol/L), AAS Rb efflux, CHO-K1 cells expressing hKir3.1/Kir3.4, mean of >4 replicates, read-out: IKACh IC50 10-pt CR, AAS
# [2] = printed as IC50 >67 μM in the 10-pt CR assay or IC50 >27 μM in the 7-pt CR assay, assay format per compound not stated, read-out: IC50
Structure (SMILES),IC50 [1] [µM],IC50 [2] [µM]
"CCC[C@@H](CN1CC[C@H](O)C1)N(C)C(=O)c1ccc(Cl)cc1 [Example 46.2, 4-Chloro-N—((S)-1-((S)-3-hydroxypyrrolidin-1-yl)pentan-2-yl)-N-methylbenzamide]",5.5,
"Cc1cc(C(=O)N(C)[C@H](CN2C[C@@H](O)[C@H](O)C2)C(C)C)ccc1F [N-((S)-1-((3R,4R)-3,4-Dihydroxypyrrolidin-1-yl)-3-methylbutan-2-yl)-4-fluoro-N,3-dimethylbenzamide]",,> 27
CC(C)[C@@H](CCN1CCCC1)N(C)C(=O)c1ccccc1 [N-Methyl-N-[(1R)-2-methyl-1-(2-pyrrolidin-1-ylethyl)propyl]benzamide],,> 27
CC(C)[C@H](CN1CCCC1)N(C)C(=O)c1ccccc1OC(F)(F)F [N-Methyl-N-[(1R)-2-methyl-1-(pyrrolidin-1-ylmethyl)propyl]-2-(trifluoromethoxy)benzamide],,> 27
CC(C)[C@@H](CN1CCCCC1)N(C)C(=O)c1ccc(OC(F)(F)F)cc1 [N-Methyl-N-[(1S)-2-methyl-1-(piperidin-1-ylmethyl)propyl]-4-(trifluoromethoxy)benzamide],,> 27
CC(C)[C@@H](CN1CCCC1)N(C)C(=O)c1ccccc1 [N-Methyl-N-[(1S)-2-methyl-1-(pyrrolidin-1-ylmethyl)propyl]benzamide],,> 27
"COc1cccc(C(=O)N(C)[C@H](CN2CCCC(F)(F)C2)C(C)C)c1 [N-[(1S)-1-[(3,3-Difluoro-1-piperidyl)methyl]-2-methyl-propyl]-3-methoxy-N-methyl-benzamide]",,> 27

# Second part, the compound after the results:
IC50 [1] [µM],IC50 [2] [µM],Structure (SMILES)
7.3,,"C[C@@H](CN1CC(O)C1)N(C)C(=O)c1ccc(Br)cc1 [Example 41, (S)-4-Bromo-N-(1-(3-hydroxyazetidin-1-yl)propan-2-yl)-N-methylbenzamide]"
4,,"CC[C@@H](CN1CC(O)C1)N(C)C(=O)c1ccc(Br)cc1 [Example 42, (S)-4-Bromo-N-(1-(3-hydroxyazetidin-1-yl)butan-2-yl)-N-methylbenzamide]"
0.81,,"CCC[C@@H](CN1CCC(O)CC1)N(C)C(=O)c1ccc(Cl)cc1 [Example 44, (S)-4-Chloro-N-(1-(4-hydroxypiperidin-1-yl)pentan-2-yl)-N-methylbenzamide]"
0.68,,"CCC[C@@H](CN1CCC(OC)CC1)N(C)C(=O)c1ccc(Cl)cc1 [Example 45, (S)-4-Chloro-N-(1-(4-methoxypiperidin-1-yl)pentan-2-yl)-N-methylbenzamide]"
8,,"CCC[C@@H](CN1CC[C@H](O)C1)N(C)C(=O)c1ccc(C#N)cc1 [Example 46.1, 4-Cyano-N-((S)-1-((S)-3-hydroxypyrrolidin-1-yl)pentan-2-yl)-N-methylbenzamide]"
,> 27,"Cc1cccc(C(=O)N(C)[C@H](CN2CC[C@H](O)C2)C(C)C)c1 [N-[(1S)-1-{[(3S)-3-Hydroxypyrrolidin-1-yl]methyl}-2-methylpropyl]-N,3-dimethylbenzamide]"
,> 27,CN(C(=O)c1ccc(C#N)cc1)[C@H](CN1CCC1)C1CC1 [N-[(1S)-2-(Azetidin-1-yl)-1-cyclopropyl-ethyl]-4-cyano-N-methyl-benzamide]
